Measured values: US7034035B2, “Fungicidal mono-, bi-, and tri-cycloheteroalkyl amides and their compositions, methods of use and preparation” (priority 1999, dated 2006)
Like-named read-outs stand apart in the source and are kept apart here.

What was measured:
[1] = system: Rhizoctonia solani (RHIZSO); assay: microbe, parasite or virus in culture; type: cell-based
[2] = system: Ustilago maydis (USTIMA); assay: microbe, parasite or virus in culture; type: cell-based
[3] = system: Leptosphaeria nodorum—LEPTNO; assay: Glume Blotch of Wheat, in vivo whole plant, 24 Hour Protectant; conditions: Leptosphaeria, 24 h, inoculated after 24 hours, read-out: LEPTNO in vivo 1 Day Protectant
[4] = system: Puccinia recondita—PUCCRT; assay: Brown Rust of Wheat, in vivo whole plant, 24 Hour Protectant; conditions: Puccinia, inoculated after 24 hours, read-out: PUCCRT in vivo 1 Day Protectant
[5] = wheat (cultivar Yuma), sprayed at 100 ppm, control of fungal infection vs untreated plants
[6] = wheat plants sprayed at 100 ppm, control vs untreated plants

SMILES: COc1ccnc(C(=O)NC(C)c2ccc(Cl)cc2)c1O (centres unmarked) [Compound 246]
- RHIZSO in vitro Growth Inhibition [1]: − (key: +: at least 80% growth inhibition; −: less than 80% growth inhibition)
- USTIMA in vitro Growth Inhibition [2]: − (key: +: at least 80% growth inhibition; −: less than 80% growth inhibition)
- pest or weed control at 100 ppm [3, 5]: 75 to 100%

SMILES: COc1ccnc(C(=O)NC2CC(C)(C)CC3(C2)CC3(F)F)c1O (centres unmarked) [Compound 255]
- RHIZSO in vitro Growth Inhibition [1]: − (key: +: at least 80% growth inhibition; −: less than 80% growth inhibition)
- USTIMA in vitro Growth Inhibition [2]: − (key: +: at least 80% growth inhibition; −: less than 80% growth inhibition)
- pest or weed control at 100 ppm [3, 5]: 75 to 100%

SMILES: COc1ccnc(C(=O)NC2CC(C)(C)CC(C)(COCC(Cl)CCl)C2)c1O (centres unmarked) [Compound 257]
- RHIZSO in vitro Growth Inhibition [1]: − (key: +: at least 80% growth inhibition; −: less than 80% growth inhibition)
- USTIMA in vitro Growth Inhibition [2]: + (key: +: at least 80% growth inhibition; −: less than 80% growth inhibition)
- pest or weed control at 100 ppm [3, 5]: 75 to 100%

SMILES: COc1ccnc(C(=O)N[C@H]2CC[C@H](Oc3ccc(C(F)(F)F)cc3)CC2)c1O [Compound 270]
- RHIZSO in vitro Growth Inhibition [1]: + (key: +: at least 80% growth inhibition; −: less than 80% growth inhibition)
- USTIMA in vitro Growth Inhibition [2]: + (key: +: at least 80% growth inhibition; −: less than 80% growth inhibition)
- pest or weed control at 100 ppm [3, 5]: 75 to 100%

SMILES: COc1ccnc(C(=O)NC2CC(C)(C)CC(C)(C(=O)CCCc3ccccc3)C2)c1O (centres unmarked) [Compound 276]
- RHIZSO in vitro Growth Inhibition [1]: − (key: +: at least 80% growth inhibition; −: less than 80% growth inhibition)
- USTIMA in vitro Growth Inhibition [2]: − (key: +: at least 80% growth inhibition; −: less than 80% growth inhibition)
- pest or weed control at 100 ppm [3, 5]: 75 to 100%

SMILES: COc1ccnc(C(=O)N[C@H]2CC[C@H]3C4CCC(CC4)[C@H]3C2=O)c1O [Compound 292]
- RHIZSO in vitro Growth Inhibition [1]: − (key: +: at least 80% growth inhibition; −: less than 80% growth inhibition)
- USTIMA in vitro Growth Inhibition [2]: − (key: +: at least 80% growth inhibition; −: less than 80% growth inhibition)
- pest or weed control at 100 ppm [3, 5]: 75 to 100%

SMILES: COc1ccnc(C(=O)N[C@H]2CC3CC2[C@H](COCc2cccc(C(F)(F)F)c2)C3)c1O (some centres unmarked) [Compound 294]
- RHIZSO in vitro Growth Inhibition [1]: + (key: +: at least 80% growth inhibition; −: less than 80% growth inhibition)
- USTIMA in vitro Growth Inhibition [2]: − (key: +: at least 80% growth inhibition; −: less than 80% growth inhibition)
- pest or weed control at 100 ppm [3, 5]: 75 to 100%

SMILES: COc1ccnc(C(=O)NC2CSCC(c3ccccc3)C2)c1O (centres unmarked) [Compound 324]
- RHIZSO in vitro Growth Inhibition [1]: + (key: +: at least 80% growth inhibition; −: less than 80% growth inhibition)
- USTIMA in vitro Growth Inhibition [2]: + (key: +: at least 80% growth inhibition; −: less than 80% growth inhibition)
- pest or weed control at 100 ppm [3, 5]: 75 to 100%

SMILES: COc1ccnc(C(=O)N[C@@H](Cc2ccc(OCc3ccccc3)cc2)C(=O)O)c1O [Compound 337]
- RHIZSO in vitro Growth Inhibition [1]: − (key: +: at least 80% growth inhibition; −: less than 80% growth inhibition)
- USTIMA in vitro Growth Inhibition [2]: − (key: +: at least 80% growth inhibition; −: less than 80% growth inhibition)
- pest or weed control at 100 ppm [3, 5]: 75 to 100%

SMILES: COc1ccnc(C(=O)N[C@@H](COCc2ccccc2)C(=O)O[C@@H](C)[C@H](OC(=O)C(C)C)[C@@H](Cc2ccccc2)C(=O)OCc2ccccc2)c1O [Compound 342]
- pest or weed control at 100 ppm [4, 5]: 75 to 100%

SMILES: COC(=O)C(COC(=O)C(COC(=O)C(C)C)Cc1ccccc1)NC(=O)c1nccc(OC)c1O (centres unmarked) [Compound 349]
- pest or weed control at 100 ppm [4, 5]: 75 to 100%

SMILES: COc1ccnc(C(=O)NC(COC(=O)C(C)Cc2ccccc2)C(=O)OC(C)C)c1O (centres unmarked) [Compound 351]
- pest or weed control at 100 ppm [4, 5]: 75 to 100%

SMILES: COc1ccnc(C(=O)NC(COC(=O)CC(C)OC(=O)CCc2ccccc2)C(=O)OC(C)C)c1O (centres unmarked) [Compound 353]
- pest or weed control at 100 ppm [4, 5]: 75 to 100%

SMILES: COc1ccnc(C(=O)NC(COC(=O)CC(C)O[Si](C)(C)C(C)(C)C)C(=O)OC(C)C)c1O (centres unmarked) [Compound 354]
- pest or weed control at 100 ppm [4, 5]: 75 to 100%

SMILES: COc1ccnc(C(=O)NC(COC(=O)C(Cc2ccccc2)C(C)O[Si](C)(C)C(C)(C)C)C(=O)OC(C)C)c1O (centres unmarked) [Compound 357]
- pest or weed control at 100 ppm [4, 5]: 75 to 100%

SMILES: COc1ccnc(C(=O)N[C@H](C(=O)O[C@@H](C)[C@H](OC(=O)C(C)C)[C@@H](Cc2ccccc2)C(=O)OCc2ccccc2)[C@@H](C)OC(C)=O)c1O [Compound 361]
- pest or weed control at 100 ppm [4, 5]: 75 to 100%

SMILES: COc1ccnc(C(=O)N[C@H]2COC(=O)[C@H](Cc3ccccc3)[C@@H](OC(=O)NC(C)C)[C@H](C)OC2=O)c1O [Compound 399]
- pest or weed control at 100 ppm [3, 5]: 75 to 100%

SMILES: COc1ccnc(C(=O)N[C@H]2COC(=O)[C@H](Cc3ccccc3)[C@@H](OC(=O)NC(C)(C)C)[C@H](C)OC2=O)c1O [Compound 400]
- pest or weed control at 100 ppm [3, 5]: 75 to 100%

SMILES: COc1ccnc(C(=O)N[C@H]2COC(=O)[C@H](Cc3ccccc3)[C@@H](OC(=O)OC(C)C)[C@H](C)OC2=O)c1O [Compound 401]
- pest or weed control at 100 ppm [3, 5]: 75 to 100%

SMILES: COc1ccnc(C(=O)N[C@H]2COC(=O)[C@H](Oc3ccccc3)[C@@H](OC(=O)C(C)C)[C@H](C)OC2=O)c1O [Compound 403]
- pest or weed control at 100 ppm [3, 5]: 75 to 100%

SMILES: CO/N=C(/c1ccc(NC(=O)c2nccc(OC)c2O)cc1)c1ccc(C(F)(F)F)cc1 [Compound 409]
- pest or weed control at 100 ppm [3, 5]: 75 to 100%

SMILES: COc1ccnc(C(=O)Nc2ccc(Oc3ccc(C)cc3)cc2)c1O [Compound 417]
- pest or weed control at 100 ppm [3, 5]: 75 to 100%

SMILES: COc1ccnc(C(=O)Nc2cccc(Oc3ccc(Cl)cc3)c2)c1O [Compound 440]
- pest or weed control at 100 ppm [3, 5]: 75 to 100%

SMILES: COc1ccnc(C(=O)Nc2ccc(Sc3cccc(C(F)(F)F)c3)cc2)c1O [Compound 445]
- pest or weed control at 100 ppm [3, 5]: 75 to 100%

SMILES: COc1ccnc(C(=O)Nc2ccc(OCc3ccc(C(F)(F)F)cc3)cc2)c1O [Compound 448]
- pest or weed control at 100 ppm [3, 5]: 75 to 100%

SMILES: COc1ccnc(C(=O)Nc2ccc(OC3CC(C)(C)CC(C)(C)C3)cc2)c1O [Compound 458]
- pest or weed control at 100 ppm [3, 6]: 75 to 100%

SMILES: COc1ccnc(C(=O)Nc2ccc(OC3CC(C)(C)OC(C)(C)C3)cc2)c1O [Compound 459]
- pest or weed control at 100 ppm [3, 6]: 75 to 100%

SMILES: COc1ccnc(C(=O)Nc2cccc(Oc3ccc(C(F)(F)F)cc3)n2)c1O [Compound 469]
- pest or weed control at 100 ppm [4, 6]: 75 to 100%

SMILES: CC(C)C(=O)O[C@H]1[C@H](C)OC(=O)[C@@H](NC(=O)c2ccncc2O)COC(=O)[C@@H]1Cc1ccccc1 [Compound 513]
- pest or weed control at 100 ppm [3, 6]: 75 to 100%

SMILES: O=C(Nc1ccc(Oc2ccccc2)cc1)c1cccnc1O [Compound 522]
- pest or weed control at 100 ppm [3, 6]: 75 to 100%

SMILES: Cc1ccc(C(=O)N[C@H]2COC(=O)[C@H](Cc3ccccc3)[C@@H](OC(=O)C(C)C)[C@H](C)OC2=O)c(O)n1 [Compound 525]
- pest or weed control at 100 ppm [3, 6]: 75 to 100%

SMILES: CC(C)C(=O)O[C@H]1[C@H](C)OC(=O)[C@@H](NC(=O)c2nccnc2O)COC(=O)[C@@H]1Cc1ccccc1 [Compound 534]
- pest or weed control at 100 ppm [3, 6]: 75 to 100%

SMILES: Cc1nc(O)c(C(=O)N[C@H]2COC(=O)[C@H](Cc3ccccc3)[C@@H](OC(=O)C(C)C)[C@H](C)OC2=O)nc1C [Compound 536]
- pest or weed control at 100 ppm [3, 6]: 75 to 100%

SMILES: COc1nc(O)c(C(=O)N[C@H]2COC(=O)[C@H](Cc3ccccc3)[C@@H](OC(=O)C(C)C)[C@H](C)OC2=O)nc1Cl [Compound 537]
- pest or weed control at 100 ppm [3, 6]: 75 to 100%

SMILES: CC(C)C(=O)O[C@H]1[C@H](C)OC(=O)[C@@H](NC(=O)c2nscc2O)COC(=O)[C@@H]1Cc1ccccc1 [Compound 550]
- pest or weed control at 100 ppm [3, 6]: 75 to 100%
